How the values were obtained:
Assay type in all cases: cell-based
[1] = target: proteins of U3A human fibrosarcoma cells (4462 proteins detected) (Homo sapiens, UniProt O00232); settings: protein PSMD12; U3A cells
[2] = target: proteins of U3A human fibrosarcoma cells (4462 proteins detected) (Homo sapiens, UniProt O00505); settings: protein KPNA3; U3A cells
[3] = target: proteins of U3A human fibrosarcoma cells (4462 proteins detected) (Homo sapiens, UniProt O00622); settings: protein CYR61; U3A cells
[4] = target: proteins of U3A human fibrosarcoma cells (4462 proteins detected) (Homo sapiens, UniProt O43402); settings: protein EMC8; soluble abundance after heat, U3A cells
Sequence of proteins of U3A human fibrosarcoma cells (4462 proteins detected) (Homo sapiens, UniProt O43402) (O43402 whole entry): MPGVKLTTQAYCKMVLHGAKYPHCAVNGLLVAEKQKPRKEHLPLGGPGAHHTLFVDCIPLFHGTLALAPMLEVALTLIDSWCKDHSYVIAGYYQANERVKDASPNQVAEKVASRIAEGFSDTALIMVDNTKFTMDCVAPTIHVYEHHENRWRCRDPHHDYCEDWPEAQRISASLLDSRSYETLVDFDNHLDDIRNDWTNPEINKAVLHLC

[5] = target: proteins of U3A human fibrosarcoma cells (4462 proteins detected) (Homo sapiens, UniProt P08582); settings: protein MFI2; U3A cells
[6] = target: proteins of U3A human fibrosarcoma cells (4462 proteins detected) (Homo sapiens, UniProt P23528); settings: protein CFL1, U3A cells
Sequence of proteins of U3A human fibrosarcoma cells (4462 proteins detected) (Homo sapiens, UniProt P23528) (P23528 whole entry): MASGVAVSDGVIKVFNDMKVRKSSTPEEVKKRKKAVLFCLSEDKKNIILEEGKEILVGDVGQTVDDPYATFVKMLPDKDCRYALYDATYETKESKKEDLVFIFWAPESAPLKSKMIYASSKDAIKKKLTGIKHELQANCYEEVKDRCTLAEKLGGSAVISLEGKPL

[7] = target: proteins of U3A human fibrosarcoma cells (4462 proteins detected) (Homo sapiens, UniProt P25440); settings: protein BRD2; soluble abundance after heat, U3A cells
[8] = target: proteins of U3A human fibrosarcoma cells (4462 proteins detected) (Homo sapiens, UniProt P50213); settings: protein IDH3A; U3A cells
[9] = target: proteins of U3A human fibrosarcoma cells (4462 proteins detected) (Homo sapiens, UniProt P50402); settings: protein EMD; soluble abundance after heat, U3A cells
Sequence of proteins of U3A human fibrosarcoma cells (4462 proteins detected) (Homo sapiens, UniProt P50402) (P50402 whole entry): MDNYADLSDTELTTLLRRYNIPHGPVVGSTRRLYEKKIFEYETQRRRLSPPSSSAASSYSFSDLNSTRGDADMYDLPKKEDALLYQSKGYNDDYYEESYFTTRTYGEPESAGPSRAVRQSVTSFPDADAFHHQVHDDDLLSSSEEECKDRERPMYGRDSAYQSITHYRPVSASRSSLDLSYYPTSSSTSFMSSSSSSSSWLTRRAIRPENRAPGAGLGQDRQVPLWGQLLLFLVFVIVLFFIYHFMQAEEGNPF

[10] = target: proteins of U3A human fibrosarcoma cells (4462 proteins detected) (Homo sapiens, UniProt P62805); settings: protein HIST1H4A; U3A, 10 μM, 2 h
[11] = target: proteins of U3A human fibrosarcoma cells (4462 proteins detected) (Homo sapiens, UniProt P78559); settings: protein MAP1A, U3A cells
[12] = target: proteins of U3A human fibrosarcoma cells (4462 proteins detected) (Homo sapiens, UniProt Q12874); settings: protein SF3A3; U3A cells
[13] = target: proteins of U3A human fibrosarcoma cells (4462 proteins detected) (Homo sapiens, UniProt Q12931); settings: protein TRAP1; U3A cells
[14] = target: proteins of U3A human fibrosarcoma cells (4462 proteins detected) (Homo sapiens, UniProt Q12933); settings: protein TRAF2; U3A cells
[15] = target: proteins of U3A human fibrosarcoma cells (4462 proteins detected) (Homo sapiens, UniProt Q13263); settings: protein TRIM28; U3A cells
[16] = target: proteins of U3A human fibrosarcoma cells (4462 proteins detected) (Homo sapiens, UniProt Q3B726); settings: protein TWISTNB; U3A cells
[17] = target: proteins of U3A human fibrosarcoma cells (4462 proteins detected) (Homo sapiens, UniProt Q6N063); settings: protein OGFOD2; U3A cells
[18] = target: proteins of U3A human fibrosarcoma cells (4462 proteins detected) (Homo sapiens, UniProt Q92797); settings: protein SYMPK; soluble abundance after heat, U3A cells
[19] = target: proteins of U3A human fibrosarcoma cells (4462 proteins detected) (Homo sapiens, UniProt Q96AT1); settings: protein KIAA1143; U3A, 10 μM, 2 h
Sequence of proteins of U3A human fibrosarcoma cells (4462 proteins detected) (Homo sapiens, UniProt Q96AT1) (Q96AT1 whole entry): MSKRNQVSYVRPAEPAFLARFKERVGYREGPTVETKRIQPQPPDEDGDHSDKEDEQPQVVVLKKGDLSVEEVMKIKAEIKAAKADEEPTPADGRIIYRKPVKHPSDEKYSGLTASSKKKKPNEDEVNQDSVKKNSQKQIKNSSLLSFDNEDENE

[20] = target: proteins of U3A human fibrosarcoma cells (4462 proteins detected) (Homo sapiens, UniProt Q96PV6); settings: protein LENG8; U3A, 10 μM, 2 h
Sequence of proteins of U3A human fibrosarcoma cells (4462 proteins detected) (Homo sapiens, UniProt Q96PV6) (Q96PV6 whole entry): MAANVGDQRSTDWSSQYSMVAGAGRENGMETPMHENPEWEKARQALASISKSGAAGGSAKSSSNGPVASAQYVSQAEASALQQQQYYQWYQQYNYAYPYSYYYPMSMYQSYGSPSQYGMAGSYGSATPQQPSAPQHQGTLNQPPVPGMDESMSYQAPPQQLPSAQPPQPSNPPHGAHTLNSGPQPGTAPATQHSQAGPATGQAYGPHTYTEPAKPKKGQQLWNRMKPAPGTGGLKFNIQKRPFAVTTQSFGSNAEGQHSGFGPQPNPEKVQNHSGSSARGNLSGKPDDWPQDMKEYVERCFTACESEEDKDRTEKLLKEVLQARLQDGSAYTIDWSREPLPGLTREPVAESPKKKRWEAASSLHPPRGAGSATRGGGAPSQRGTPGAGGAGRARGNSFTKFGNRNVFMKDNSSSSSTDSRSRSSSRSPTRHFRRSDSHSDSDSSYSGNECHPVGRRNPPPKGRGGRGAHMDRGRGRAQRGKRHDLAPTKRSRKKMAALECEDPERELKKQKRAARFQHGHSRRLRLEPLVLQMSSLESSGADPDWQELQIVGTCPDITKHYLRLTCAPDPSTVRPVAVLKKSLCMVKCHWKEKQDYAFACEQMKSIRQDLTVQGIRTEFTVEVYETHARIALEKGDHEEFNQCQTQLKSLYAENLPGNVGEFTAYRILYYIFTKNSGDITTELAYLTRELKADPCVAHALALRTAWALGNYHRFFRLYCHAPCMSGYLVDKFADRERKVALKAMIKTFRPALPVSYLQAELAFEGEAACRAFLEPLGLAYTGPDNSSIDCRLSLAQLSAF

[21] = target: proteins of U3A human fibrosarcoma cells (4462 proteins detected) (Homo sapiens, UniProt Q96Q89); settings: protein KIF20B; U3A cells
Sequence of proteins of U3A human fibrosarcoma cells (4462 proteins detected) (Homo sapiens, UniProt Q96Q89) (Q96Q89 whole entry): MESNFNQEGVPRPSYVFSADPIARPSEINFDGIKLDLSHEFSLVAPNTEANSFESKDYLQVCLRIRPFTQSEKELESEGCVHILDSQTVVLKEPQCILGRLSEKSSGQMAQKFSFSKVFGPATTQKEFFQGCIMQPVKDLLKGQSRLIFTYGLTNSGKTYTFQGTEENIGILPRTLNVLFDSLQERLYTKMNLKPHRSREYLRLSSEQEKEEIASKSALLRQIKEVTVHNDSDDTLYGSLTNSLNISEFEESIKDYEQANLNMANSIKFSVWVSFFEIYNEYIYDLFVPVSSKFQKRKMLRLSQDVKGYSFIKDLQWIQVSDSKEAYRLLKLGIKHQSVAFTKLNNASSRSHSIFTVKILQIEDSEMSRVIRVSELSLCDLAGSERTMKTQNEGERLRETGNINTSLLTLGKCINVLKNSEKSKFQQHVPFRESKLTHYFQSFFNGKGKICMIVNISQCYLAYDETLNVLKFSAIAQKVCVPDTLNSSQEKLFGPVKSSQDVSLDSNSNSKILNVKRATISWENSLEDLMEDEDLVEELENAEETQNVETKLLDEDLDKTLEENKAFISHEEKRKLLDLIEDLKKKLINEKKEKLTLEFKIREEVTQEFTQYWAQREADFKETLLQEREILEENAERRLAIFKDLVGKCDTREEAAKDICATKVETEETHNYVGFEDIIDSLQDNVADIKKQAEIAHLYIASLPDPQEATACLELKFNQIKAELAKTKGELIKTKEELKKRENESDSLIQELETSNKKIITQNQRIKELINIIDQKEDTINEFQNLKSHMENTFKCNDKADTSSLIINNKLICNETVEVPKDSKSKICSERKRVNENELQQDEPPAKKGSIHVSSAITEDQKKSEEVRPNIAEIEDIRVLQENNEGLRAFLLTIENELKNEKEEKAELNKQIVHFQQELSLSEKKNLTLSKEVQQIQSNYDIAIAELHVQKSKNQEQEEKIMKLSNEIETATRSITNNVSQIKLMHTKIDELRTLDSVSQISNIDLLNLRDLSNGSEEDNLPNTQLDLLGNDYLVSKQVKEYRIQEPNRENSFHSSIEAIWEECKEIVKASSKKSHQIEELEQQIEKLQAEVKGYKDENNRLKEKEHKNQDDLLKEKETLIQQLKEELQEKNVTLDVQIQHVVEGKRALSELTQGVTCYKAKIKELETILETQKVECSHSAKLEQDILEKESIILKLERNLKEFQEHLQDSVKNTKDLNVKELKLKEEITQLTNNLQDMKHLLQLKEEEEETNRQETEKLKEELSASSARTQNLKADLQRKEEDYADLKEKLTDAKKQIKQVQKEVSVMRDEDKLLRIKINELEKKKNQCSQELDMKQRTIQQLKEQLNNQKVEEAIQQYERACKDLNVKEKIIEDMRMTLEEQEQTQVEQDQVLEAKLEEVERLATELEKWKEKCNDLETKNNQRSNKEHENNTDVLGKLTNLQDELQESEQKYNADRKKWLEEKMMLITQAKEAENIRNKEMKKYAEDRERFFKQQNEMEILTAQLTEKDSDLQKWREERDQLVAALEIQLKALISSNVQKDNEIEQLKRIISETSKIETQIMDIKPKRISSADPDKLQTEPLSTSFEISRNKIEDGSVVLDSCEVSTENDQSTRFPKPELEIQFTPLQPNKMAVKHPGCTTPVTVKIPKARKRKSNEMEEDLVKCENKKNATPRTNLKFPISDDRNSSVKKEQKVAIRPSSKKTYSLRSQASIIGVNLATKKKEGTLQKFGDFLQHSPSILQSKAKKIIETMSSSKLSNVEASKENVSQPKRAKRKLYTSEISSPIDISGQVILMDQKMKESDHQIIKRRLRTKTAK

[22] = target: proteins of U3A human fibrosarcoma cells (4462 proteins detected) (Homo sapiens, UniProt Q9BWU0); settings: protein SLC4A1AP, U3A cells
[23] = target: proteins of U3A human fibrosarcoma cells (4462 proteins detected) (Homo sapiens, UniProt Q9HCJ0); settings: protein TNRC6C, U3A cells
[24] = target: proteins of U3A human fibrosarcoma cells (4462 proteins detected) (Homo sapiens, UniProt Q9NRY5); settings: protein FAM114A2; U3A cells
[25] = target: proteins of U3A human fibrosarcoma cells (4462 proteins detected) (Homo sapiens, UniProt Q9NVA2); settings: protein SEPT11, U3A cells
Sequence of proteins of U3A human fibrosarcoma cells (4462 proteins detected) (Homo sapiens, UniProt Q9NVA2) (Q9NVA2 whole entry): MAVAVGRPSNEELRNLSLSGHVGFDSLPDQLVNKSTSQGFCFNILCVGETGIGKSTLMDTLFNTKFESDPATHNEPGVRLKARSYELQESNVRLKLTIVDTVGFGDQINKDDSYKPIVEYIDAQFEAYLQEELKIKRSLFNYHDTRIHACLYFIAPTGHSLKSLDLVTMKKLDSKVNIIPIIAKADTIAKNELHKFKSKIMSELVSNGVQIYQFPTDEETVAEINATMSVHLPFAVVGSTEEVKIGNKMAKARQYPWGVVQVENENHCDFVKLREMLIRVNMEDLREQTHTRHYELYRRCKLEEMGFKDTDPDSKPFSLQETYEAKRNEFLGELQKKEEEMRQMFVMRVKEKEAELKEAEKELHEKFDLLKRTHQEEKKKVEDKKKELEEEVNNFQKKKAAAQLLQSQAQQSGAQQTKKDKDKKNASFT

[26] = target: proteins of U3A human fibrosarcoma cells (4462 proteins detected) (Homo sapiens, UniProt Q9NVH2); settings: protein INTS7; soluble abundance after heat, U3A cells
[27] = target: proteins of U3A human fibrosarcoma cells (4462 proteins detected) (Homo sapiens, UniProt Q9NZT2); settings: protein OGFR, U3A cells
Sequence of proteins of U3A human fibrosarcoma cells (4462 proteins detected) (Homo sapiens, UniProt Q9NZT2) (Q9NZT2 whole entry): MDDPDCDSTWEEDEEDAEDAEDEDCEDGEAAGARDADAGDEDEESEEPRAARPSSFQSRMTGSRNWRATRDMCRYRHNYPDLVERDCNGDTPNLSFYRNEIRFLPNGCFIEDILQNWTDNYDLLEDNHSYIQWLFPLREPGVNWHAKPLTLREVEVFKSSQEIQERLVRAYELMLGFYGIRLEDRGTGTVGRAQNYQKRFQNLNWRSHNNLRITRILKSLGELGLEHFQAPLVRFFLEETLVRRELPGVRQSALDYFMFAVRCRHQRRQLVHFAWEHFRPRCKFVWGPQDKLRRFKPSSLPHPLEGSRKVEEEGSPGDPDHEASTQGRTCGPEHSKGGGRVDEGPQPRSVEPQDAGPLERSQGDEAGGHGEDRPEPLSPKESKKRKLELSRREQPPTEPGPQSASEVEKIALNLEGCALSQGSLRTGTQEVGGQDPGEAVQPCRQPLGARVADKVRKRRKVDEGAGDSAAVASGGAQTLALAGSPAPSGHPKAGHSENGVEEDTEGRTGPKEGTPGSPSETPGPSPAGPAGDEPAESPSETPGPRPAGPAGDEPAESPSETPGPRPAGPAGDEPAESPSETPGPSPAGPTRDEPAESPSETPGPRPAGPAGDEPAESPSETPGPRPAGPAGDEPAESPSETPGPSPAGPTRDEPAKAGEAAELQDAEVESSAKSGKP

[28] = target: proteins of U3A human fibrosarcoma cells (4462 proteins detected) (Homo sapiens, UniProt Q9UBQ5); settings: protein EIF3K; U3A cells
[29] = target: proteins of U3A human fibrosarcoma cells (4462 proteins detected) (Homo sapiens, UniProt Q9UBV8); settings: protein PEF1; U3A, 10 μM, 2 h
[30] = target: proteins of U3A human fibrosarcoma cells (4462 proteins detected) (Homo sapiens, UniProt Q9UNM6); settings: protein PSMD13; U3A cells
Sequence of proteins of U3A human fibrosarcoma cells (4462 proteins detected) (Homo sapiens, UniProt Q9UNM6) (Q9UNM6 whole entry): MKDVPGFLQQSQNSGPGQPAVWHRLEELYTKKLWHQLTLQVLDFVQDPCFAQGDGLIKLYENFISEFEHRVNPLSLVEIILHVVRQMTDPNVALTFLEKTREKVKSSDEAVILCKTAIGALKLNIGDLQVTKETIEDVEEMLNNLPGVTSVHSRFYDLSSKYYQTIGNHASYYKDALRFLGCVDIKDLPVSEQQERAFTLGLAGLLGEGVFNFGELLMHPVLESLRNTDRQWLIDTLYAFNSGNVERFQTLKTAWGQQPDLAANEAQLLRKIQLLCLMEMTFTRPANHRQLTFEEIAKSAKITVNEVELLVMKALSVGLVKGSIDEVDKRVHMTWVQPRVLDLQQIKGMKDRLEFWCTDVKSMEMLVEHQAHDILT

Question: Which results are given for `CCc1nc(N)nc(N)c1-c1ccc(Cl)cc1` [pyrimethamine]?
Answer: Log2 (PYR/DMSO) [1]: 0.18; Log2 (PYR/DMSO) [2]: 0.18; Log2 (PYR/DMSO) [3]: 0.21; Log2 (PYR/DMSO) [4]: 0.15; Log2 (PYR/DMSO) [5]: 0.18; Log2 (PYR/DMSO) [6]: -0.04; Log2 (PYR/DMSO) [7]: 0.14; Log2 (PYR/DMSO) [8]: 0.16; Log2 (PYR/DMSO) [9]: 0.15; Log2 (PYR/DMSO), HIST1H4A [10]: 0.28; Log2 (PYR/DMSO) [11]: -0.04; Log2 (PYR/DMSO) [12]: 0.18; Log2 (PYR/DMSO) [13]: 0.21; Log2 (PYR/DMSO) [14]: 0.16; Log2 (PYR/DMSO) [15]: 0.16; Log2 (PYR/DMSO) [16]: 0.16; Log2 (PYR/DMSO) [17]: 0.16; Log2 (PYR/DMSO) [18]: 0.15; Log2 (PYR/DMSO), KIAA1143 [19]: -0.16; Log2 (PYR/DMSO), LENG8 [20]: 0.27; Log2 (PYR/DMSO) [21]: 0.23; Log2 (PYR/DMSO) [22]: -0.04; Log2 (PYR/DMSO) [23]: -0.04; Log2 (PYR/DMSO) [24]: 0.17; Log2 (PYR/DMSO) [25]: -0.04; Log2 (PYR/DMSO) [26]: 0.15; Log2 (PYR/DMSO) [27]: -0.04; Log2 (PYR/DMSO) [28]: 0.20; Log2 (PYR/DMSO), PEF1 [29]: 0.24; Log2 (PYR/DMSO) [30]: 0.17
